Data: ChEMBL document CHEMBL5335856, “Structurally Diverse Alkaloids with Anti-Renal-Fibrosis Activity from the Centipede Scolopendra subspinipes mutilans” (J Nat Prod, 2024)
The source made the active and inactive calls. The rule behind the calls is not given here.

Experiments:
[1] = target: Serine/threonine-protein kinase DCLK1 (Homo sapiens) (UniProt O15075); assay: Binding affinity to Dclk1 (unknown origin) assessed as fold change in protein upregulation at 200 uM preincubated for 2 hrs followed by pronase addition and measured after 30 mins by coomassie blue staining based SDS-PAGE gel analysis
Septin-5 (Homo sapiens) = Septin-5 (Homo sapiens) (UniProt Q99719); assay: Binding affinity to Septin5 (unknown origin) assessed as fold change in protein upregulation at 200 uM preincubated for 2 hrs followed by pronase addition and measured after 30 mins by coomassie blue staining based SDS-PAGE gel analysis
[2] = target: Kinesin-like protein KIF21A (Homo sapiens) (UniProt Q7Z4S6); assay: Binding affinity to Kif21a (unknown origin) at 200 uM preincubated for 2 hrs followed by pronase addition and measured after 30 mins by coomassie blue staining based SDS-PAGE gel analysis
[3] = target: Cysteine and glycine-rich protein 2 (Homo sapiens) (UniProt Q16527); assay: Binding affinity to Csrp2 (unknown origin) assessed as fold change in protein upregulation at 200 uM preincubated for 2 hrs followed by pronase addition and measured after 30 mins by coomassie blue staining based SDS-PAGE gel analysis
Lamin-B2 (Homo sapiens) = Lamin-B2 (Homo sapiens) (UniProt Q03252); assay: Binding affinity to Lmnb2 (unknown origin) assessed as fold change in protein upregulation at 200 uM preincubated for 2 hrs followed by pronase addition and measured after 30 mins by coomassie blue staining based SDS-PAGE gel analysis
[4] = target: Protein O-mannosyl-transferase TMTC3 (Homo sapiens) (UniProt Q6ZXV5); assay: Binding affinity to Tmtc3 (unknown origin) assessed as fold change in protein upregulation at 200 uM preincubated for 2 hrs followed by pronase addition and measured after 30 mins by coomassie blue staining based SDS-PAGE gel analysis
[5] = target: CD2-associated protein (Homo sapiens) (UniProt Q9Y5K6); assay: Binding affinity to Cd2ap (unknown origin) at 200 uM preincubated for 2 hrs followed by pronase addition and measured after 30 mins by coomassie blue staining based SDS-PAGE gel analysis
[6] = target: Chromobox protein homolog 5 (Homo sapiens) (UniProt P45973); assay: Binding affinity to Cbx5 (unknown origin) assessed as fold change in protein upregulation at 200 uM preincubated for 2 hrs followed by pronase addition and measured after 30 mins by coomassie blue staining based SDS-PAGE gel analysis
[7] = target: Stress-induced-phosphoprotein 1 (Homo sapiens) (UniProt P31948); assay: Binding affinity to Stip1 (unknown origin) assessed as fold change in protein upregulation at 200 uM preincubated for 2 hrs followed by pronase addition and measured after 30 mins by coomassie blue staining based SDS-PAGE gel analysis
[8] = target: Glutathione hydrolase 7 (Homo sapiens) (UniProt Q9UJ14); assay: Binding affinity to Ggt7 (unknown origin) at 200 uM preincubated for 2 hrs followed by pronase addition and measured after 30 mins by coomassie blue staining based SDS-PAGE gel analysis
[9] = target: Tropomyosin alpha-3 chain (Homo sapiens) (UniProt P06753); assay: Binding affinity to Tpm3 (unknown origin) at 200 uM preincubated for 2 hrs followed by pronase addition and measured after 30 mins by coomassie blue staining based SDS-PAGE gel analysis
NRK-52E [10] = assay: Cytotoxicity against rat NRK-52E cells at 10 to 80 uM incubated for 48 hrs by CCK-8 assay; type: toxicity, cell-based; conditions: dose 10-80 µM
NRK-52E [11] = assay: Anti-renal-fibrosis activity in TGF-beta1 induced rat NRK-52E cells assessed as downregulation of collagen I protein level by Western blot analysis; type: functional, cell-based; conditions: dose 5-40 µM
[12] = target: Na(+)/H(+) exchange regulatory cofactor NHE-RF1 (Homo sapiens) (UniProt O14745); assay: Binding affinity to Slc9a3r1 (unknown origin) assessed as fold change in protein upregulation at 200 uM preincubated for 2 hrs followed by pronase addition and measured after 30 mins by coomassie blue staining based SDS-PAGE gel analysis
[13] = target: Armadillo repeat-containing protein 10 (Homo sapiens) (UniProt Q8N2F6); assay: Binding affinity to Armc10 (unknown origin) at 200 uM preincubated for 2 hrs followed by pronase addition and measured after 30 mins by coomassie blue staining based SDS-PAGE gel analysis
[14] = target: Serine/threonine-protein kinase TAO3 (Homo sapiens) (UniProt Q9H2K8); assay: Binding affinity to Taok3 (unknown origin) at 200 uM preincubated for 2 hrs followed by pronase addition and measured after 30 mins by coomassie blue staining based SDS-PAGE gel analysis
[15] = target: Chromosome transmission fidelity protein 18 homolog (Homo sapiens) (UniProt Q8WVB6); assay: Binding affinity to Chtf18 (unknown origin) assessed as fold change in protein upregulation at 200 uM preincubated for 2 hrs followed by pronase addition and measured after 30 mins by coomassie blue staining based SDS-PAGE gel analysis
[16] = target: U6 snRNA-associated Sm-like protein LSm8 (Homo sapiens) (UniProt O95777); assay: Binding affinity to Lsm8 (unknown origin) at 200 uM preincubated for 2 hrs followed by pronase addition and measured after 30 mins by coomassie blue staining based SDS-PAGE gel analysis
[17] = target: Far upstream element-binding protein 2 (Homo sapiens) (UniProt Q92945); assay: Binding affinity to KHSRP (unknown origin) assessed as fold change in protein upregulation at 200 uM preincubated for 2 hrs followed by pronase addition and measured after 30 mins by coomassie blue staining based SDS-PAGE gel analysis
[18] = target: Far upstream element-binding protein 1 (Homo sapiens) (UniProt Q96AE4); assay: Binding affinity to Fubp1 (unknown origin) assessed as fold change in protein upregulation at 200 uM preincubated for 2 hrs followed by pronase addition and measured after 30 mins by coomassie blue staining based SDS-PAGE gel analysis
[19] = target: 2-oxoisovalerate dehydrogenase subunit beta, mitochondrial (Homo sapiens) (UniProt P21953); assay: Binding affinity to BCKDHB (unknown origin) at 200 uM preincubated for 2 hrs followed by pronase addition and measured after 30 mins by coomassie blue staining based SDS-PAGE gel analysis
NRK-52E [20] = assay: Anti-renal-fibrosis activity in TGF-beta1 induced rat NRK-52E cells assessed as downregulation of fibronectin expression at 40 uM; type: functional, cell-based
[21] = target: ATP-dependent RNA helicase DHX8 (Homo sapiens) (UniProt Q14562); assay: Binding affinity to Dhx8 (unknown origin) at 200 uM preincubated for 2 hrs followed by pronase addition and measured after 30 mins by coomassie blue staining based SDS-PAGE gel analysis
[22] = target: Protein farnesyltransferase/geranylgeranyltransferase type-1 subunit alpha (Homo sapiens) (UniProt P49354); assay: Binding affinity to FNTA (unknown origin) assessed as fold change in protein upregulation at 200 uM preincubated for 2 hrs followed by pronase addition and measured after 30 mins by coomassie blue staining based SDS-PAGE gel analysis
NRK-52E [23] = assay: Anti-renal-fibrosis activity in TGF-beta1 induced rat NRK-52E cells assessed as downregulation of alpha-SMA protein level by Western blot analysis; type: functional, cell-based; conditions: dose 5-40 µM
[24] = target: Tyrosine-protein phosphatase non-receptor type 2 (Homo sapiens) (UniProt P17706); assay: Binding affinity to Ptpn2 (unknown origin) assessed as fold change in protein upregulation at 200 uM preincubated for 2 hrs followed by pronase addition and measured after 30 mins by coomassie blue staining based SDS-PAGE gel analysis
Chain of Tyrosine-protein phosphatase non-receptor type 2 (Homo sapiens) (P17706 whole entry): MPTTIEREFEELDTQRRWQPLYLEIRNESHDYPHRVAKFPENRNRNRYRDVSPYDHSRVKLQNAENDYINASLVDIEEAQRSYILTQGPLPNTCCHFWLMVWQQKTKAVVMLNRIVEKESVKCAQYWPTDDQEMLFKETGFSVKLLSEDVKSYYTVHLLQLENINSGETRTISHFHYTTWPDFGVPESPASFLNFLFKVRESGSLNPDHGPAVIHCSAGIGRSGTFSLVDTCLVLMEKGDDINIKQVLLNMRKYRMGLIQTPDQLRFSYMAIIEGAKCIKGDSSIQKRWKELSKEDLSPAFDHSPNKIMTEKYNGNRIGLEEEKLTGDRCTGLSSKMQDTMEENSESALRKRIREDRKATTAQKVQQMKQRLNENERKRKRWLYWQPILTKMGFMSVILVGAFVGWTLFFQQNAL

Chain of Far upstream element-binding protein 2 (Homo sapiens) (Q92945 whole entry): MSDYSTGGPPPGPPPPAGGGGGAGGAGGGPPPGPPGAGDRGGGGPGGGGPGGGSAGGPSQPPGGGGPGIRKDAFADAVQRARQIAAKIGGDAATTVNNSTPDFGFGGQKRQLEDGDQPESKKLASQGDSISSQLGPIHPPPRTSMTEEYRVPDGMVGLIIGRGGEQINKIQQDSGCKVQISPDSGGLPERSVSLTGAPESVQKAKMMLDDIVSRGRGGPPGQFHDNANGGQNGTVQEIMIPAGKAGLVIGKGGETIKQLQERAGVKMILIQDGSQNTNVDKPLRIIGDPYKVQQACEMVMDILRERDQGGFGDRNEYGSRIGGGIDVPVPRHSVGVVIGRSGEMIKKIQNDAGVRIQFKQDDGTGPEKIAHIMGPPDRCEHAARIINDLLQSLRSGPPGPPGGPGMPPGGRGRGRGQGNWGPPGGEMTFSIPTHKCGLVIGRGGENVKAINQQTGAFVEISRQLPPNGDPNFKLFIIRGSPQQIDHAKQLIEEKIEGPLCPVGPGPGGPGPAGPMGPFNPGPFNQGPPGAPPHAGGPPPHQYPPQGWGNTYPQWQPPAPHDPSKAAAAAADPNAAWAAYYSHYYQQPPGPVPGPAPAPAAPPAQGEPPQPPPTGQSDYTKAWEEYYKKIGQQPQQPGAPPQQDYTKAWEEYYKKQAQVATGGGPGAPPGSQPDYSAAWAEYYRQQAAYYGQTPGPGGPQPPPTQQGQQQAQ
Chain of 2-oxoisovalerate dehydrogenase subunit beta, mitochondrial (Homo sapiens) (P21953 whole entry): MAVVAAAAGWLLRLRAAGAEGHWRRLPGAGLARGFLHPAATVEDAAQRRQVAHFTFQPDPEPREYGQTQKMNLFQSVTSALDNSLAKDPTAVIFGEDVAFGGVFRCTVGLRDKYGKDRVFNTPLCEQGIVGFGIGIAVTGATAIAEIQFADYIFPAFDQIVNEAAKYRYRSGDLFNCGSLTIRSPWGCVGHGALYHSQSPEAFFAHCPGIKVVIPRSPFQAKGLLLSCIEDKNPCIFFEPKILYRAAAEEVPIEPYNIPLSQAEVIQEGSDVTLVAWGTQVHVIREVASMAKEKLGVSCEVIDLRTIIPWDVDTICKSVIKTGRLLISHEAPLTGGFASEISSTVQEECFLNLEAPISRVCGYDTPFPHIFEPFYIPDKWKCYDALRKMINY
Chain of Glutathione hydrolase 7 (Homo sapiens) (Q9UJ14 whole entry): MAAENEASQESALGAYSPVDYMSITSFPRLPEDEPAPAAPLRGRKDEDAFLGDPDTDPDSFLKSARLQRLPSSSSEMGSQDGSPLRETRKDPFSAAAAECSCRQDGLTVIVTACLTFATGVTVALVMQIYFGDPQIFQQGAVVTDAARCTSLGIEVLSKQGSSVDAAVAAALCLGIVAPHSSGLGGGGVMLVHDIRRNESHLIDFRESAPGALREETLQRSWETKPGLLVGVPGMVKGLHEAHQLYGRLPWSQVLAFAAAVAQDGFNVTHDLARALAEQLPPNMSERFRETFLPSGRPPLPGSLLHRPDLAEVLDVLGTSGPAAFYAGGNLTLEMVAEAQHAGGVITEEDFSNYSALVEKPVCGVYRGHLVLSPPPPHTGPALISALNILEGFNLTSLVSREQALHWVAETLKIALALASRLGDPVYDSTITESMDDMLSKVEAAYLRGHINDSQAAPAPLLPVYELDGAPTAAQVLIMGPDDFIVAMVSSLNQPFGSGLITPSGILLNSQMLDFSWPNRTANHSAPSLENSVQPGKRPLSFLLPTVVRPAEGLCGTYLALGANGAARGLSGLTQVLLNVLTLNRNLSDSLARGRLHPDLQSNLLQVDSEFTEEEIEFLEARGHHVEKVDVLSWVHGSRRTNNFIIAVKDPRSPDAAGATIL
Chain of Serine/threonine-protein kinase TAO3 (Homo sapiens) (Q9H2K8 whole entry): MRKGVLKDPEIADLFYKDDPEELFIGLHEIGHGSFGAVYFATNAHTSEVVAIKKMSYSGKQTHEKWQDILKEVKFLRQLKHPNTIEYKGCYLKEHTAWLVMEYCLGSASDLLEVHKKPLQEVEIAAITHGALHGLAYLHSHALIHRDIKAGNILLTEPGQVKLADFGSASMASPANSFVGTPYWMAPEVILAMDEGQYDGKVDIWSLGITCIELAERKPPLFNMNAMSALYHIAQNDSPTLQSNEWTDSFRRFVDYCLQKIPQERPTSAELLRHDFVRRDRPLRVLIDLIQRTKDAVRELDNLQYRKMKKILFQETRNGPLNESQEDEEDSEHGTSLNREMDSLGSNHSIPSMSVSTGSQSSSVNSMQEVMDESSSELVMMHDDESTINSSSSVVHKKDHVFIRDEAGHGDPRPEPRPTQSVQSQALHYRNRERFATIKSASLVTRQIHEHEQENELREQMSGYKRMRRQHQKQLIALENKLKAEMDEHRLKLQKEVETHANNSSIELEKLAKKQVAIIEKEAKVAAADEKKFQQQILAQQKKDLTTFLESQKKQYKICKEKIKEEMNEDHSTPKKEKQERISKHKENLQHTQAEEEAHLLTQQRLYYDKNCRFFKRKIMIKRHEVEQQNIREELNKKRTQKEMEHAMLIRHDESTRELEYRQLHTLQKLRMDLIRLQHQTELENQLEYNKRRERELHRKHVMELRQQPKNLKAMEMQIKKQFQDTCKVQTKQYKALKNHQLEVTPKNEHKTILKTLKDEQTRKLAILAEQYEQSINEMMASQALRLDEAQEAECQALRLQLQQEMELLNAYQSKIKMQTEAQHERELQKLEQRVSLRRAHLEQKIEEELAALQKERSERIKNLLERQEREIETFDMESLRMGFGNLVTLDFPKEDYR
Chain of CD2-associated protein (Homo sapiens) (Q9Y5K6 whole entry): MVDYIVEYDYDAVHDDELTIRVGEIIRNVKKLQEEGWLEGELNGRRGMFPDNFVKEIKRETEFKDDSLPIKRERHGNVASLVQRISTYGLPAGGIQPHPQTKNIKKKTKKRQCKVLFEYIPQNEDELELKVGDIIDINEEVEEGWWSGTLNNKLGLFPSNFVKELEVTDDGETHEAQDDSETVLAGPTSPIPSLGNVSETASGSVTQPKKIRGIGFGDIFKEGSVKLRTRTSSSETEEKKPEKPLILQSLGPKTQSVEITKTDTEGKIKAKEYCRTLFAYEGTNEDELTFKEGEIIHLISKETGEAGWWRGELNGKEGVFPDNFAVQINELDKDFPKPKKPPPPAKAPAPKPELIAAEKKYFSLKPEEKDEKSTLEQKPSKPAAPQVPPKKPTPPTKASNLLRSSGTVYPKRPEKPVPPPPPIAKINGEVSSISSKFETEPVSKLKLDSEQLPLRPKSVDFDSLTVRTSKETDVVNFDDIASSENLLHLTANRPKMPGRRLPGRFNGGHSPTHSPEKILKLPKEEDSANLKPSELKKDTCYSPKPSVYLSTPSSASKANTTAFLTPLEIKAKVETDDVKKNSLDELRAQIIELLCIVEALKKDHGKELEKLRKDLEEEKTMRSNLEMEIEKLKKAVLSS
Chain of U6 snRNA-associated Sm-like protein LSm8 (Homo sapiens) (O95777 whole entry): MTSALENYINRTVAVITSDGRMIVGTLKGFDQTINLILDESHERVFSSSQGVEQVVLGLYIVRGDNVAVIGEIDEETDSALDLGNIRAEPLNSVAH
Chain of Septin-5 (Homo sapiens) (Q99719 whole entry): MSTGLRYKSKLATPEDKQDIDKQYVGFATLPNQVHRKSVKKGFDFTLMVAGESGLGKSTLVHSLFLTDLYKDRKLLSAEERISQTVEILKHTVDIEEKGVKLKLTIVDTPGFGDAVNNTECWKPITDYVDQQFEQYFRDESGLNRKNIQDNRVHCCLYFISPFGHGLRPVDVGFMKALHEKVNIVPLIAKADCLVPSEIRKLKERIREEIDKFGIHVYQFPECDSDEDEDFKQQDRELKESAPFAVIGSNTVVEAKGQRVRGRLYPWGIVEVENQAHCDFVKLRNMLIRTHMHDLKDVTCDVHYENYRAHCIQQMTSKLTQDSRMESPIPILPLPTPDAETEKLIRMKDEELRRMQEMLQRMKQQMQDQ
Chain of Na(+)/H(+) exchange regulatory cofactor NHE-RF1 (Homo sapiens) (O14745 whole entry): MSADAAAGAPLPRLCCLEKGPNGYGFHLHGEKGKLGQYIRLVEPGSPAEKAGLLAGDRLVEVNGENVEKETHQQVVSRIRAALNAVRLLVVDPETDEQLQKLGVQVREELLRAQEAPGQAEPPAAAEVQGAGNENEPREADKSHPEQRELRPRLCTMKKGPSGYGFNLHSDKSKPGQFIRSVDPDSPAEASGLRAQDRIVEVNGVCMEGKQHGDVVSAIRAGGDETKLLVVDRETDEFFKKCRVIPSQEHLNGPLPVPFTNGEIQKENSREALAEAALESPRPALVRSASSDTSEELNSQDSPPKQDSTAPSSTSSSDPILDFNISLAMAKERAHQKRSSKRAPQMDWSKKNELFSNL
Chain of Tropomyosin alpha-3 chain (Homo sapiens) (P06753 whole entry): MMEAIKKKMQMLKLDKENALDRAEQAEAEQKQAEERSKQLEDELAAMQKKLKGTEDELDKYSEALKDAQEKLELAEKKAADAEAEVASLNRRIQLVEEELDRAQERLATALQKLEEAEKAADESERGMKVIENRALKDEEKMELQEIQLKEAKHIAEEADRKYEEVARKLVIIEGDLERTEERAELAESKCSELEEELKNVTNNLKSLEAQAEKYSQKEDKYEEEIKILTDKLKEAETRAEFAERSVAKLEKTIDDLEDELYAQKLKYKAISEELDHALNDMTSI

`COc1c(O)nc2c(O)cccc2c1OC` was tested, and the fold change (FC) [1] was 2.01, the fold change (FC) (Septin-5 (Homo sapiens)) was 1.48 and the Activity [2] was “Active”. It also gave a fold change (FC) [3] of 1.29, a fold change (FC) (Lamin-B2 (Homo sapiens)) of 1.24 and a fold change (FC) [4] of 1.22. For the same molecule, the Activity [5] was “Active”, the fold change (FC) [6] was 1.25 and the fold change (FC) [7] was 1.33. The Activity [8] was “Active”, the Activity [9] was “Active” and the Activity (NRK-52E [10]) was “Non-Toxic”. For the same molecule, the Activity (NRK-52E [11]) was “Dose-Dependent Effect”, the fold change (FC) [12] was 3.04 and the Activity [13] was “Active”. For the same molecule, the Activity [14] was “Active”, the fold change (FC) [15] was 2.05 and the Activity [16] was “Active”. For the same molecule, the fold change (FC) [17] was 2.19, the fold change (FC) [18] was 1.29 and the Activity [19] was “Active”. For the same molecule, the Activity (NRK-52E [20]) was “Active”, the Activity [21] was “Active” and the fold change (FC) [22] was 1.26. For the same molecule, the Activity (NRK-52E [23]) was “Dose-Dependent Effect” and the fold change (FC) [24] was 1.57.
